Test results as given in patent publication US6576600B1, “Detergent” (Tokuyama Corporation, priority 1999, dated 2003).

test: Solubility / compatibility of the organic solvents in water at 60° C.; assay type: physicochemical
Procedure: The above component (A) in the present invention is a polar organic solvent having low compatibility with water. The expression “low compatibility with water” means that only a small amount of the component dissolves in water, the solubility in water at 60° C., that is, the proportion of a portion soluble in water is preferably 50 vol % or less, more preferably 30 vol % or less. The expression “polar organic solvent” means an organic solvent having a relative dielectric constant of preferably 8 or more, more preferably 10 or more.
The organic solvents used in the examples and comparative examples are as follows.

| SMILES | solubility in water at 60° C. | compatibility with water at 60° C. |
| --- | --- | --- |
| CCN1CCN(C)C1=O [DEI, 1-ethyl-3-methyl-2-imidazolidinone] |  | compatible with water at 60 °C in any ratio |
| CCOCC(C)OCC(C)OCC (centres unmarked) [DPDE, dipropylene glycol diethyl ether] | 5 vol % |  |
| COC(C)COC(C)CO (centres unmarked) [DPM, dipropylene glycol monomethyl ether, reference compound] |  | compatible with water at 60 °C in any ratio |
| CN1CCN(C)C1=O [DMI, 1,3-dimethyl-2-imidazolidinone] |  | compatible with water at 60 °C in any ratio |

Second part, led by results:

| solubility in water at 60° C. | SMILES | compatibility with water at 60° C. |
| --- | --- | --- |
| 10 vol % | CCCOC(C)COC(C)CO (centres unmarked) [DPP, dipropylene glycol monopropyl ether] |  |
| 6 vol % | CCCCOCC(C)O (centres unmarked) [PB, propylene glycol monobutyl ether] |  |
| 13 vol % | CCCCCCCCN1CCCC1=O [NOP, N-octylpyrrolidone] |  |
| 12 vol % | CCCN1CCN(CCC)C1=O [DPI, 1,3-dipropyl-2-imidazolidinone] |  |
